Experimental data taken from US20070128270A1.
Converted amounts (≈) assume the structure as drawn.

Experiments:
[1] = Accelerated stability of capsules, HPLC potency and impurities; assay type: physicochemical; conditions: Initial
Experimental: The accelerated stability of the capsules of Examples 1 and 2 was studied. The capsules were packaged in HDPE bottles and stored at 40° C./75% RH and under ICH option 2 light condition. The samples were assayed by HPLC for potency and impurities and by dissolution apparatus. […] No change in dissolution was also observed under all conditions.

[2] = physchem; assay type: physicochemical
Text: In fact, according to a preferred embodiment, the at least one surfactant is a blend of surfactants, more preferably a blend of sodium lauryl sulfate and polysorbate 80 (Tween 80). In a particularly preferred embodiment, the pharmaceutically acceptable additives further comprise at least one solubilizer. Preferably the solubilizer is povidone.

Compound: CNC(=O)c1c(-c2ccc(F)cc2)oc2cc(N(CCO)S(C)(=O)=O)c(C3CC3)cc12
- Impurity (%) RRT: 1.06 [1]: <0.05%
- Impurity (%) RRT: 1.45 [1]: 0.13%
- Impurity (%) RRT: 1.79 [1]: 0.05%
- Impurity (%) RRT: 1.84 [1]: 0.07%
- Strength (%) [1]: 99.2%
- solubility in aqueous medium at gastrointestinal pHs [2]: insoluble
- solubility ([2]; Solubility): 20 µg/mL (≈ 44.8 µM)
